Here are results for seven compounds from ChEMBL document CHEMBL1201862, “PubChem BioAssay data set” (2004).

Holding throughout (experiment): DTP human tumour cell line panel, 48 h
Test [1] has as its system M14.
For test [2], the system named is PC-3.
Test [3] concerns IGROV-1.
For test [4], the system named is SF-268.
For test [5], the system named is UACC-257.
The test system of test [6] is MDA-MB-435.
Test [7] relates to MDA-N.
For test [8], the system named is MDA-MB-231.
Test [9] has as its system MCF7.
In test [10] the test system is HOP-62.
In test [11] the test system is RPMI-8226.
Test [12] deals with UACC-62.
The subject of test [13] is OVCAR-5.
Test [14] relates to SK-MEL-28.
Test [15] has as its system A549.
For test [16], the system named is HCC 2998.
Test [17] relates to K562.
Test [18] relates to MOLT-4.
Test [19] deals with A498.
For test [20], the system named is OVCAR-3.

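All cell lines were grown in 96-well plates and treated with compound for 48 hours. GI50 is the concentration that inhibits growth by half.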 The source made the active and inactive calls. Cut-off read from the data, not from the text of the source: active = GI50 up to about 1.1 µM and inactive = higher. A value given as a limit tells only on which side of the number the result lay.

Regarding `COc1cccc2c1C(=O)c1c(O)c3c(c(O)c1C2=O)C[C@@](O)(/C(C)=N\O)C[C@@H]3OC1CC(N)C(O)C(C)O1` (stereo not given in full), the GI50 in [1] was 2.28 µM (inactive); in [2], 1.36 µM (inactive); in test [3] it was 0.76 µM (active); in test [4], 0.931 µM (active); in test [5] it was 1.78 µM (inactive); in test [6], 8.45 µM (inactive). For the same compound, the GI50 in [7] is 1.88 µM (inactive); in [8], 2.51 µM (inactive); in test [9], 0.289 µM (active); in test [10] it was 1.24 µM (inactive); in test [11] it was 0.592 µM (active); in [12] it was 1.12 µM (inactive). The GI50 in test [13] was 2.7 µM (inactive); in [14], 1.64 µM (inactive); in test [15], 0.968 µM (active); in test [16], 0.834 µM (active); in test [17], 0.553 µM (active); in test [18], 0.0661 µM (active). Also, the GI50 in test [19] is 0.834 µM (active); in [20], 1.45 µM (inactive).
Take `NCCCc1c(-c2ccccc2)[nH]c(N)nc1=O`: the GI50 in [1], in test [2], in test [3], in test [4], in [5] and in test [6] was > 100 µM (inactive) in each case. In addition, the GI50 in test [7], in test [8], in [9], in [10], in test [11] and in [12] was > 100 µM (inactive) throughout. The GI50 in test [13], in test [14], in [15], in [16], in test [17] and in test [18] was > 100 µM (inactive) each time. Also, the GI50 in [19] and in test [20] was > 100 µM (inactive) throughout.
For `Cc1ccccc1NC(=S)N/N=C(/c1ccccc1)c1ccccn1`, the GI50 in test [1] is < 0.027 µM (active); in [2], < 0.01 µM (active); in test [3], < 0.01 µM (active); in test [4], 0.0904 µM (active); in [5] it was < 0.01 µM (active); in test [6], 0.757 µM (active). Besides, the GI50 in [7] was 0.7 µM (active); in test [8], < 0.01 µM (active); in [9], 0.0215 µM (active); in [10] it was 0.0331 µM (active); in test [11], < 0.01 µM (active); in test [12], 0.171 µM (active). In addition, the concentration for 50% growth inhibition (GI50) was < 0.0165 µM (active) in test [13]; 2.3 µM (inactive) in test [14]; 0.0428 µM (active) in test [15]; 3.22 µM (inactive) in test [16]; < 0.0282 µM (active) in test [17]; < 0.0295 µM (active) in test [18]. The GI50 in test [19] is 0.398 µM (active); in test [20], < 0.01 µM (active).
`O=C(CCc1ccc(O)c(O)c1)NCCc1cc(O)c(O)c(O)c1`: the GI50 in test [1] was 22.4 µM (inactive); in test [2] it was > 100 µM (inactive); in test [3], 54.1 µM (inactive); in [4], 41.1 µM (inactive); in [5], 50.1 µM (inactive); in [6], 17.6 µM (inactive). The GI50 in test [7] was 16.9 µM (inactive); in test [8] it was 14.5 µM (inactive); in test [9] it was 8.93 µM (inactive); in [10], 45.7 µM (inactive); in [11], 36.7 µM (inactive); in test [12], 90.8 µM (inactive). Besides, the GI50 in test [13] is 61.2 µM (inactive); in [14] it was > 100 µM (inactive); in test [15] it was 22.5 µM (inactive); in test [16], > 100 µM (inactive); in test [17], 18.3 µM (inactive); in test [18] it was 21.6 µM (inactive). Moreover, the GI50 was > 100 µM (inactive) in test [19] and 19.8 µM (inactive) in [20].
Turning to `CCCCCC#CCOC(=O)C(=[N+]=[N-])P(=O)(c1ccccc1)c1ccccc1`, the GI50 in test [1], in [2], in test [3], in test [4], in test [5] and in test [6] was > 10 µM (inactive) each time. The GI50 is > 10 µM (inactive) in test [7]; > 10 µM (inactive) in test [8]; > 10 µM (inactive) in test [9]; > 10 µM (inactive) in test [10]; 9.84 µM (inactive) in [11]; > 10 µM (inactive) in [12]. For the same compound, the GI50 in [13], in test [14], in test [15], in test [16], in test [17] and in test [18] was > 10 µM (inactive) each time. Besides, the GI50 in test [19] and in test [20] was > 10 µM (inactive) throughout.
With `CC(=O)CC1CCC(=O)/C=C/C(=O)OC(CC(C)=O)CCC(=O)/C=C/C(=O)O1` (stereo not given), the GI50 in test [1] was 3.7 µM (inactive); in test [2], 15 µM (inactive); in test [3] it was 16.1 µM (inactive); in [4], 25.9 µM (inactive); in [5] it was 15.5 µM (inactive); in test [6], 17 µM (inactive). Besides, the GI50 is 9.53 µM (inactive) in test [7]; 5.09 µM (inactive) in [8]; 9.25 µM (inactive) in test [9]; 23.3 µM (inactive) in [10]; 2.9 µM (inactive) in [11]; 14.6 µM (inactive) in [12]. The GI50 in [13] is 17.6 µM (inactive); in [14], 7.33 µM (inactive); in test [15] it was 21.7 µM (inactive); in [16] it was 22.8 µM (inactive); in [17], 3.25 µM (inactive); in test [18], 2.19 µM (inactive). Besides, the GI50 was 18.3 µM (inactive) in [19] and 6.79 µM (inactive) in test [20].
As for `Cc1cccc(C[C@@]2(SCc3ccccc3)C(C)(C)[C@@H]3CC[C@@]2(C)C3)n1`, the GI50 was 14.7 µM (inactive) in test [1]; 20 µM (inactive) in test [2]; 15.1 µM (inactive) in test [3]; 16.1 µM (inactive) in [4]; 14.1 µM (inactive) in test [5]; 24 µM (inactive) in test [6]. The GI50 in test [7] was 24.5 µM (inactive); in test [8], 14 µM (inactive); in [9] it was 13.9 µM (inactive); in [10], 23.4 µM (inactive); in test [11] it was 11.8 µM (inactive); in test [12], 13.7 µM (inactive). Further, the GI50 was 18 µM (inactive) in test [13]; 19.5 µM (inactive) in [14]; 21.9 µM (inactive) in test [15]; 15.4 µM (inactive) in test [16]; 13.1 µM (inactive) in test [17]; 12.6 µM (inactive) in test [18]. Moreover, the GI50 in [19] is 15.3 µM (inactive); in test [20], 15.6 µM (inactive).
